According to publication PMC9645390, “Amphiphilic stilbene derivatives attenuate the neurotoxicity of soluble Aβ42 oligomers by controlling their interactions with cell membranes” (Chemical Science, 2022):

What was measured:
[1] = system: Aβ oligomers–SH-SY5Y cell membrane interactions; test: Confocal imaging of Aβ oligomers binding to SH-SY5Y cell membranes; type: cell-based, human; conditions: 5 μM Aβ oligomers + 5 μM compound, 24 h; for Aβ oligomers bound to cell membranes (in words): CF594-HJ 3.4 staining
Text: (§1) Encouraged by the ability of the developed amphiphilic compounds to attenuate the neurotoxicity of Cu–Aβ species, we sought out to study the possible molecular mechanisms for this beneficial effect. The Aβ oligomers were reported to interact with cell membranes in various ways, such as binding to receptors on cell membranes,[49,50] inserting into membranes,[51] or even showing cellular uptake via endocytosis.[52] The abnormal interactions between Aβ oligomers and neuron cells, which could disrupt the neuronal ion homeostasis and neuron cell membrane integrity, might be why Aβ oligomers are highly neurotoxic.[53–55] Moreover, molecules that can disrupt interactions between oligomers and cell membranes are promising candidates for drug development.[56,57] Thus, we proceeded to probe the interactions of the Aβ42 oligomers with SH-SY5Y cellular membranes, in the absence and presence of the compounds, via confocal microscopy. […] Moreover, a lower concentration of Aβ42 (5 μM) or Aβ42–Cu (5 μM) were chosen to avoid significant cell death (Fig. S9b ^†). Before investigating the neuroprotective effect of our compounds, we have also confirmed that Aβ aggregates interact tightly with the cell membranes, as shown via co-staining with a membrane specific dye (Fig. S10 ^†). […]
Fig. 10 (a) SH-SY5Y cells were treated with 5 μM Aβ oligomers in the presence or absence of 5 μM ZY-15-MT or 5 μM ZY-15-OMe for 24 h before imaging. Red and blue fluorescence indicate the Aβ oligomers and nuclei, respectively. […] (b) Three independent experiments were subjected for the statistical analysis and analyzed by one-way ANOVA (*P < 0.05, ***P < 0.001).
(§2) RCSB database and optimized by minimal minimization with the OPLS3 force field using the Protein Preparation Wizard program. […] The calculated poses were ranked by both the docking score and Glide e-model energy, and the structures with the best docking scores and Glide e-model energies were rendered in […]

[2] = system: Aβ fibrils–SH-SY5Y cell membrane interactions; test: Confocal imaging of Aβ fibrils binding to SH-SY5Y cell membranes; type: cell-based, human; conditions: 5 µM fibrils + 5 µM compound, 24 h
Text: as §1, with “^†).” for “^†). Before investigating the neuroprotective effect of our compounds, we have also confirmed that Aβ aggregates interact tightly with the cell membranes, as shown via co-staining with a membrane specific dye (Fig. S10 ^†).”
as §2

[3] = target: T1, human serum albumin (HSA) (Homo sapiens, UniProt P02768); test: Fluorescence turn-on with human serum albumin (selectivity); type: binding; conditions: compound 5 µM, HSA 1 mg/mL, Aβ42 fibrils 25 µM for comparison
T1 construct: purchased
Description: To investigate whether these amphiphilic compounds can interact with different Aβ species, we recorded the fluorescence intensity changes in the absence and presence of Aβ42 fibrils and oligomers, respectively, which were prepared as previously reported.[28] […] The enhanced fluorescence intensity and blue shift are possibly due to the restriction in a rotation of the aromatic rings and the changes of hydrophobicity at the Aβ binding sites. […] Comparing the ZY-17 series with the other series of compounds, we believe that the thiophene ring in the stilbene-like binding scaffold is essential for the selectively toward Aβ species, while the more hydrophobic tri-benzene rings might lead to unspecific binding to other proteins; such a design principle will be key for the development of second-generation compounds with increased Aβ-binding selectivity.
Figure S4. Fluorescence turn-on effects of amphiphilic compounds with HAS; [compound] = 5 µM, [Aβ42 fibrils] = […]

T1 sequence (P02768 25-609): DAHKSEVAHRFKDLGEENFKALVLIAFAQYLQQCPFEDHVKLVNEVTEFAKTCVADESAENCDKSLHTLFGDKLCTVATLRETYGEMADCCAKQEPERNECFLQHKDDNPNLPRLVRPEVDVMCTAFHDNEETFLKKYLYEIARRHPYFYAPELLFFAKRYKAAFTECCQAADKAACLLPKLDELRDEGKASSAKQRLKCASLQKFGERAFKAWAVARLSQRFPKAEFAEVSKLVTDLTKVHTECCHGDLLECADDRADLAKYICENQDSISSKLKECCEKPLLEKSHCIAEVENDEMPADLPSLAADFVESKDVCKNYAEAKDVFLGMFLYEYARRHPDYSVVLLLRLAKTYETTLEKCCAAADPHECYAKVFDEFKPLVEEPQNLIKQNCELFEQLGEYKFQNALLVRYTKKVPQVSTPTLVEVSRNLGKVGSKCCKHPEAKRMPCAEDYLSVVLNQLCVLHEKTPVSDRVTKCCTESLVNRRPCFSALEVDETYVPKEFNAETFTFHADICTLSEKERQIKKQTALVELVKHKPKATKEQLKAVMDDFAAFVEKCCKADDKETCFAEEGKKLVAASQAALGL

## COc1cc(/C=C/c2ccc(-c3ccc(C=O)cc3)s2)cc(CN2CCN(C)CCN(C)CC2)c1O [ZY-15-OMe]
[1]
  Aβ oligomers bound to cell membranes (in words): fewer numbers of Aβ oligomers bound to the cell membranes
[2]
  Aβ fibrils binding to cell membranes (in words): not able to significantly decrease the numbers of the Aβ fibrils binding to cell membranes

## CN1CCN(C)CCN(Cc2cc(/C=C/c3ccc(-c4ccc(C=O)cc4)s3)ccc2O)CC1 [ZY-15-MT]
[1]
  decrease of the numbers of Aβ oligomers binding to the cell membranes: about 50%
  Aβ oligomers bound to cell membranes (in words): fewer numbers of Aβ oligomers bound to the cell membranes
[2]
  Aβ fibrils binding to cell membranes (in words): not able to significantly decrease the numbers of the Aβ fibrils binding to cell membranes

## COc1cc(OC)cc(-c2ccc(/C=C/c3cc(CN4CCN(C)CCN(C)CC4)c(O)c(OC)c3)cc2)c1 [ZY-17-OMe]
[3]
  fluorescence turn-on in the presence of HSA (in words): even higher fluorescence intensity increase in the presence of HSA than for Aβ42 fibrils

## COc1cc(OC)cc(-c2ccc(/C=C/c3cc(CN4CCN(C)CCN(C)CC4)c(O)c(CN4CCN(C)CCN(C)CC4)c3)cc2)c1 [ZY-17-DT]
[3]
  fluorescence turn-on in the presence of HSA (in words): even higher fluorescence intensity increase in the presence of HSA than for Aβ42 fibrils
